Here are results for 5 compounds from ChEMBL document CHEMBL5214932, “A closer look at N2,6-substituted 1,3,5-triazine-2,4-diamines: Advances in synthesis and biological activities” (Eur J Med Chem, 2022).

Series [1] is described as follows: Cytotoxicity against human MT2 cells assessed as cell growth inhibition by MTT assay. The format is toxicity, cell-based. (Tetrazolium dyes change colour on reduction, which living cells bring about.)
In series [2] the test system is Human immunodeficiency virus 1. Kind of series: Antiviral activity against wild type HIV1 IIIB assessed as viral growth inhibition measured after 5 days by MTT assay. Conditions: Human immunodeficiency virus 1, IIIB, 120 h. It counts as functional, organism-based.
For series [3], the target named is T1, Equilibrative nucleoside transporter 2 (Homo sapiens, UniProt Q14542).
T1 sequence (Q14542 whole entry): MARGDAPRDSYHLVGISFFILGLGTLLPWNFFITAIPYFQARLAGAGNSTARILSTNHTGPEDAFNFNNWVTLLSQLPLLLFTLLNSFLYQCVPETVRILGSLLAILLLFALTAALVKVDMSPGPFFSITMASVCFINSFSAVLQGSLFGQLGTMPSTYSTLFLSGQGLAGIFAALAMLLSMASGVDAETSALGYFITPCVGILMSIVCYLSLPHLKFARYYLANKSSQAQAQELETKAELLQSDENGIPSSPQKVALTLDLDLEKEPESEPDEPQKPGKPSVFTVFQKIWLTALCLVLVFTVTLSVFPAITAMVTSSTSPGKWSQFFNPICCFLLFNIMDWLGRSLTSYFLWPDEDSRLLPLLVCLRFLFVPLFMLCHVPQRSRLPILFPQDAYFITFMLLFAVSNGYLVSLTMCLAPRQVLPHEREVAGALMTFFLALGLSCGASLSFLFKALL
The experiment in a line: Inhibition of human ENT2 transfected in nucleoside transporter-deficient pig PK-15 cells assessed as inhibition of [3H]-adenosine uptake by liquid scintillation counter analysis. The format is cell-based.

Series [4] concerns the target T2, Equilibrative nucleoside transporter 1 (Homo sapiens, UniProt Q99808).
T2 sequence (Q99808 whole entry): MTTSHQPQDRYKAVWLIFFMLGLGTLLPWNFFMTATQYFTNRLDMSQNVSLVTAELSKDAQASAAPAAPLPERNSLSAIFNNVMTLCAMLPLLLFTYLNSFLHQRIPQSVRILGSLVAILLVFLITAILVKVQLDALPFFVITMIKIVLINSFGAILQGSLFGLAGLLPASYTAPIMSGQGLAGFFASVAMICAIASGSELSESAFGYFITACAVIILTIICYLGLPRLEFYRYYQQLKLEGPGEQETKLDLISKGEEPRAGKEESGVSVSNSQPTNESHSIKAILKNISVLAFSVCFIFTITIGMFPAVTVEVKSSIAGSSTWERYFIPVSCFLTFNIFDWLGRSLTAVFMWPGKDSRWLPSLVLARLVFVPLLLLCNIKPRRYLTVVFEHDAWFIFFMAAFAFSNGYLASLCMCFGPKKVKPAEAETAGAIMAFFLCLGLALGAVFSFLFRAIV
Kind of series: Inhibition of human ENT1 transfected in nucleoside transporter-deficient pig PK-15 cells assessed as inhibition of [3H]-uridine uptake by liquid scintillation counter analysis. It counts as cell-based.

For series [5], the target named is T1, Equilibrative nucleoside transporter 2. The experiment in a line: Inhibition of human ENT2 transfected in nucleoside transporter-deficient pig PK-15 cells assessed as inhibition of [3H]-uridine uptake by liquid scintillation counter analysis. The format is cell-based.
Series [6] deals with T2, Equilibrative nucleoside transporter 1. The experiment in a line: Inhibition of human ENT1 transfected in nucleoside transporter-deficient pig PK-15 cells assessed as inhibition of [3H]-adenosine uptake by liquid scintillation counter analysis. The format is cell-based.
The test system of the next series is SISO. The experiment in a line: Cytotoxicity against human SISO cells assessed as cell growth inhibition measured after 96 hrs by microplate reader analysis. The format is functional, cell-based.
Another series deals with RT-4. Kind of series: Cytotoxicity against human RT-4 cells assessed as cell growth inhibition measured after 96 hrs by microplate reader analysis. The format is functional, cell-based. Conditions: RT-4, 96 h.
The next series has as its system A-427. The experiment in a line: Cytotoxicity against human A-427 cells assessed as cell growth inhibition measured after 96 hrs by microplate reader analysis. It counts as functional, cell-based. Conditions: A-427, 96 h.
The next series relates to LCLC. Kind of series: Cytotoxicity against human LCLC cells assessed as cell growth inhibition measured after 96 hrs by microplate reader analysis. The format is functional, cell-based.
Another series concerns DAN-G. Kind of series: Cytotoxicity against human DAN-G cells assessed as cell growth inhibition measured after 96 hrs by microplate reader analysis. The format is functional, cell-based.
A short description of series [7]: Cytotoxicity against human Hepa 1-6/R cells assessed as cell growth inhibition measured after 72 hrs by CellTiter-Glo assay. It counts as functional, cell-based. On the technique in general: In ATP-based viability assays light output follows the ATP content of the culture.
Series [8] can be described thus: Cytotoxicity against […] cells assessed as cell growth inhibition measured after 72 hrs by CellTiter-Glo assay. It counts as functional, cell-based. Conditions: Hepa1-6, 72 h.
Another series deals with SK-BR-3. The experiment in a line: Antiproliferative activity against human SK-BR-3 cells assessed as cell growth inhibition measured after 72 hrs by MTT assay. The format is functional, cell-based. Conditions: SK-BR-3, 72 h.
The next series deals with DU-145. The experiment in a line: Antiproliferative activity against human DU-145 cells assessed as cell growth inhibition measured after 72 hrs by MTT assay. The format is functional, cell-based. The note with it: DU-145, 72 h.
The subject of the next series is MCF-10A. The experiment in a line: Antiproliferative activity against human MCF-10A cells assessed as cell growth inhibition measured after 72 hrs by MTT assay. It counts as functional, cell-based.
The next series deals with MCF7. Kind of series: Antiproliferative activity against human MCF7 cells assessed as cell growth inhibition measured after 72 hrs by MTT assay. The format is functional, cell-based. The note with it: MCF7, 72 h.
A further series deals with MDA-MB-231. Kind of series: Antiproliferative activity against human MDA-MB-231 cells assessed as cell growth inhibition measured after 72 hrs by MTT assay. It counts as functional, cell-based. The note with it: MDA-MB-231, 72 h.

As usually defined, the IC50 is the concentration that inhibits the measured activity by half. With `N#C/C=C/c1cccc(Oc2cc(Nc3nc(N)nc(C4CC4)n3)ccc2C#N)c1`, the IC50 was 1700 nM in [1] and 43 nM in [2].
Take `Nc1nc(CN2CCN(c3ccccc3F)CC2)nc(Nc2cccc3ccccc23)n1`: the concentration for half-maximal inhibition (IC50) is 4.36 µM in series [3], 18 µM in series [4], 1690 nM in series [5] and 19.4 µM in series [6].
Consider `CCN(CC)c1ccc2cc(-c3nc(N)nc(N4CCN(c5ccccc5)CC4)n3)c(=N)oc2c1`, for which the IC50 in the series on SISO turned out to be 2600 nM; in the series with RT-4 it was 1660 nM; with A-427, 1510 nM; in the series on LCLC, 2210 nM; with DAN-G, 2140 nM.
For `C[C@H](CCc1nc(N)nc(N(C)C)n1)[C@H]1CC[C@H]2[C@@H]3[C@@H](O)C[C@@H]4C[C@H](O)CC[C@]4(C)[C@H]3CC[C@]12C`, the results for the IC50 in series [7] and in [8] were 30.3 µM and 28.6 µM, respectively.
For `CN(C)c1ccc(-c2nc(N)nc(Nc3ccccc3F)n2)cc1`, the half-maximal inhibitory concentration (IC50) is 290 nM in the series on SK-BR-3; 670 nM in the series on DU-145; greater than 25 µM with MCF-10A; greater than 20 µM in the series with MCF7; 60 nM in the series with MDA-MB-231.
